Assay results published in patent US5914319A, “Antithrombotic agents” (Eli Lilly and Company, priority 1995, dated 1999).
Where a name gives a salt, the structure may show the parent alone. Read-outs that look alike come from different tables or passages of the source.

Tests used:
Human plasma [1] = assay: Human plasma anticoagulation, thrombin time (TT); type: biochemical; settings: concentration required to double the thrombin time, linear extrapolation
In short: (§1)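 Values are concentrations estimated by linear extrapolation to double the clotting time in human plasma containing test compound across a wide range. Thrombin time was triggered with bovine thrombin at 10 NIH units/mL plus saline, and prothrombin time with Thromboplastin-C plus saline. For APTT, plasma sat with Actin reagent for 120 seconds before 0.02M CaCl2.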

[2] = Index of bioavailability (% Relative Activity from plasma TT time course); type: in vivo; settings: dose-adjusted AUC of plasma TT time course, p.o. versus i.v. bolus
Experimental: Parke Davis) at 37° C. […] Assays are done in duplicate and averaged. […] Each sample population represented alternating sequential time points.

human thrombin = human thrombin (Homo sapiens, UniProt P00734); assay: Inhibition of the amidase activity of thrombin (Kass); type: biochemical
Human plasma [3] = assay: Human plasma anticoagulation, activated partial thromboplastin time (APTT); type: biochemical; settings: concentration required to double the APTT, linear extrapolation
In short: as §1

Human plasma [4] = assay: Human plasma anticoagulation, prothrombin time (PT); type: biochemical; settings: concentration required to double the PT, linear extrapolation
In short: as §1

factor Xa = molecular target: T1, factor Xa (Homo sapiens, UniProt P00742); assay: Kass with other serine proteases: factor Xa; type: biochemical; settings: substrate N-Benzoyl-Ile-Glu-Gly-Arg-p-nitroanilide
T1 construct: Human factors X, Xa, IXa, XIa, and XIIa are purchased; purchased Enzyme Research Laboratories, South Bend, Ind
T1 sequence (P00742 235-488 limits assumed): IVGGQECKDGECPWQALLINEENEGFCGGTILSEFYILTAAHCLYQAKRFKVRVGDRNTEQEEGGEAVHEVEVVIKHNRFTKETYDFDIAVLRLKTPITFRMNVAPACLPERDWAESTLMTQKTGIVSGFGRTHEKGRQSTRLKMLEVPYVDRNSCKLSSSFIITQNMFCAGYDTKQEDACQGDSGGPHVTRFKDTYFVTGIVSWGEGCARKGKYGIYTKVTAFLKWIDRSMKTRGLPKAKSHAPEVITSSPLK
T1 sequence (P00742 41-179 partner limits assumed): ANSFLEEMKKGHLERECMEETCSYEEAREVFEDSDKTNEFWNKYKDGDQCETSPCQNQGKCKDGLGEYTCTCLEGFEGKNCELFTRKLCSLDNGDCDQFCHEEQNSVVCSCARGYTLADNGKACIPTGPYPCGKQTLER

Bovine trypsin = molecular target: T2, Bovine trypsin (Bos taurus, UniProt P00760); assay: Kass with other serine proteases: trypsin; type: biochemical; settings: substrate N-Benzoyl-Phe-Val-Arg-p-nitroanilide
T2 construct: Bovine trypsin is purchased from Worthington Biochemicals; purchased Worthington Biochemicals, Freehold, N.J
T2 sequence (P00760 24-246): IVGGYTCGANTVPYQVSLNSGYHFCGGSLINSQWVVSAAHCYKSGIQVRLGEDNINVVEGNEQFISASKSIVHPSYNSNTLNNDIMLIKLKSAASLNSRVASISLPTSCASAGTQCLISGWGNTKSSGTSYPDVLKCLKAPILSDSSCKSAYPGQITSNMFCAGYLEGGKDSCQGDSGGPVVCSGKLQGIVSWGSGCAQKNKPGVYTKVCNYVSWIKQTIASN

Human plasmin = molecular target: T3, Human plasmin (Homo sapiens, UniProt P00747); assay: Kass with fibrinolytic system proteases: plasmin; type: biochemical; settings: substrate H-D-Val-Leu-Lys-p-nitroanilide
T3 construct: Human plasmin is purchased from Boehringer Mannheim; purchased Boehringer Mannheim, Indianapolis, Ind
T3 sequence (P00747 581-810 limits assumed): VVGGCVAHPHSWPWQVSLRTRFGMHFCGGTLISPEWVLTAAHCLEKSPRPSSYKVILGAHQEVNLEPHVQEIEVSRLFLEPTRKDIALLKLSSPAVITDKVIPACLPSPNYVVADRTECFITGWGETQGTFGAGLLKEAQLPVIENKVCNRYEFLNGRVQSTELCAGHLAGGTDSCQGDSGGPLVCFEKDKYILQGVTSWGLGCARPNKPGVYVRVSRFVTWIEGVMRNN
T3 sequence (P00747 97-580 partner limits assumed): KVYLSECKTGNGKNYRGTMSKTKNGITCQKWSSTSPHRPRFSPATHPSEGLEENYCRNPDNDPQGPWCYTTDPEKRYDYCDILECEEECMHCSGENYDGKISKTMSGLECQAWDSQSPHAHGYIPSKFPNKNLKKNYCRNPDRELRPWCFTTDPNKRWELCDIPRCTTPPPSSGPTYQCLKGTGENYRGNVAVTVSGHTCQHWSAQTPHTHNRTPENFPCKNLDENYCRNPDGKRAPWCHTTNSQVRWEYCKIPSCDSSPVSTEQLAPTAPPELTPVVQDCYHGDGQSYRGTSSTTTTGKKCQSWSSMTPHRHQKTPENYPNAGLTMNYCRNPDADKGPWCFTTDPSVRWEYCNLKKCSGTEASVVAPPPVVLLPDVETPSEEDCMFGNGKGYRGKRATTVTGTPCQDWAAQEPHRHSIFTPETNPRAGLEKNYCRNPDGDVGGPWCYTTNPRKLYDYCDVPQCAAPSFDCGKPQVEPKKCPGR
Experimental: (§2) By substantially following the procedures described above for human thrombin, and using other human blood coagulation system serine proteases and proteases of the fibrinolytic system with the appropriate chromogenic substrates, identified below, selectivity of the compounds of the present invention with respect to the coagulation factor serine proteases and with respect to the fibrinolytic system serine proteases are evaluated as well as their substantial lack of interference with serine proteases of the fibrinolytic system. […] This would be important to the therapeutic use of such agents as an adjunct to streptokinase, t-PA or urokinase thrombolytic therapy and to the use of such agents as an endogenous fibrinolysis-sparing (with respect to t-PA and urokinase) antithrombotic agent. In addition to the lack of interference with the amidase activity of the fibrinolytic proteases, such fibrinolytic system sparing can be studied by the use of human plasma clots and their lysis by the respective fibrinolytic plasminogen activators.

[5] = molecular target: T4, tissue plasminogen activator (t-PA) (Homo sapiens, UniProt P00750); assay: Kass with fibrinolytic system proteases: t-PA; type: biochemical; settings: substrate H-D-Ile-Pro-Arg-p-nitroanilide
T4 construct: purchased American Diagnostica, Greenwich, Conn
T4 sequence (P00750 36-562): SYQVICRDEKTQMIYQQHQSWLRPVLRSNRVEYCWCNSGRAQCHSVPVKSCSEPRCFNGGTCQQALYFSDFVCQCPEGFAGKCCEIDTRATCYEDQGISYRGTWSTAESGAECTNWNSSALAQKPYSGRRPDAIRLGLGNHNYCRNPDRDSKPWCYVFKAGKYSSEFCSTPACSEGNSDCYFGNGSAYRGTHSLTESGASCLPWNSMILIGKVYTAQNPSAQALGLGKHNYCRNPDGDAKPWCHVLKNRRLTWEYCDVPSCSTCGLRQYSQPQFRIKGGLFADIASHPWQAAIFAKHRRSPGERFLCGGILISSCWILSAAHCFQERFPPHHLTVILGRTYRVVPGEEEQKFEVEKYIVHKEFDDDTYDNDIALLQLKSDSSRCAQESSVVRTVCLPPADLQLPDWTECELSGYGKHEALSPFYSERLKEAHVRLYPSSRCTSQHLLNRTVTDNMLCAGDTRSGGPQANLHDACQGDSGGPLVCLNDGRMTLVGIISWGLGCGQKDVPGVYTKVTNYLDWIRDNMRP
Experimental: as §2

[6] = early clinical studies, Simoons et al., Circulation, 90, I-231 (1994); cited from earlier work
[7] = mean over a range of test compound concentrations, […]

Kass × 10^6 (L/mole) Human Thrombin (human thrombin; [7]) | Kass × 10^6 (L/mole) Xa (factor Xa) | Kass × 10^6 (L/mole) Trypsin (Bovine trypsin) | Kass × 10^6 (L/mole) Plasmin (Human plasmin) | Kass × 10^6 (L/mole) t-PA [5] | Molecule | Human Plasma Anticoagulation 2× Clotting time (ng/mL) TT (Human plasma [1]) | % oral/i.v. activity (Rat) [2] | Human Plasma Anticoagulation 2× Clotting time (ng/mL) APTT (Human plasma [3]) | Human Plasma Anticoagulation 2× Clotting time (ng/mL) PT (Human plasma [4]) | anticoagulant in man [6] | Kass × 10^6 (L/mole) Human Thrombin (human thrombin)
– | – | – | – | – | CCS(=O)(=O)N[C@H](Cc1ccccc1)C(=O)N1CCC[C@H]1C(=O)NCCCCN=C(N)N.Cl [Example 1, EtSO2 -D-Phe-Pro-Agm.HCl] | 250 ng/mL | 8% | – | – | – | –
770 × 10^6 L/mole | – | – | – | – | EtSO2 -D-Phe-Pro-p-NHCH2 --C6 H4 C(=NH)NH2.HCl [Example 23] | 7 ng/mL | – | 86 ng/mL | 120 ng/mL | – | –
30 × 10^6 L/mole | – | – | – | – | N=C(N)c1ccc(CNC(=O)[C@@H]2CCCN2C(=O)[C@@H](CCc2ccccc2)NCC(=O)O)cc1 [Example 87, HOOCCH2 -D-hPhe-Pro-p-NHCH2 C6 H4 C(NH)NH2.HCl] | 9 ng/mL | – | 260 ng/mL | 310 ng/mL | – | –
63 × 10^6 L/mole | – | – | – | – | Cl.Cl.Cl.N=C(N)NCCCCNC(=O)[C@@H]1CCCN1C(=O)[C@@H]1NCC[C@H]2CCCC[C@H]21 [Example 61, (4aR,8aR)-Perhydoisoquinoline-1(R)-carbonyl-Pro-Agm.3HCl] | 45 ng/mL | – | 679 ng/mL | 756 ng/mL | – | –
4,100 × 10^6 L/mole | 5.5 × 10^6 L/mole | 250. × 10^6 L/mole | 0.43 × 10^6 L/mole | 0.05 × 10^6 L/mole | N=C(N)c1ccc(CNC(=O)[C@@H]2CCCN2C(=O)[C@@H](CC2CCCCC2)NCC(=O)O)cc1 [Example 48, HOOCCH2 -D-Cha-Pro-p-NHCH2 C6 H4 C(NH)NH2.HCl] | 2. ng/mL | – | 33 ng/mL | 59 ng/mL | – | –
5.0 × 10^6 L/mole | – | – | – | – | CCS(=O)(=O)N[C@H](CC1CCCCC1)C(=O)N1CCC[C@H]1C(=O)NCc1ccc(N)cc1F [Example 82, EtSO2 -D-Cha-Pro-4-NHCH2 -3-F-C6 H3 NH2.HCl] | 130 ng/mL | – | 3,800 ng/mL | 3,000 ng/mL | – | –
– | – | – | – | – | CN[C@H](Cc1ccccc1)C(=O)N1CCC[C@H]1C(=O)N[C@H](C=O)CCCNC(=N)N.O=S(=O)(O)O [D-MePhe-Pro-Arg-H sulfate] | – | – | – | – | anticoagulant in man | –
– | – | – | – | – | EtSO2 -Phg-cis-Ohi-p-NHCH2 C6 H4 C(NH)NH2.HCl [Example 44] | 4. ng/mL | – | 100 ng/mL | 170 ng/mL | – | 630
15 × 10^6 L/mole | – | – | – | – | Nc1ccc(CNC(=O)[C@@H]2CCCN2C(=O)[C@@H](CC2CCCCC2)NCC(=O)O)c(F)c1 [Example 64, HO2 CCH2 -D-Cha-Pro-4-NHCH2 -3-F-C6 H3 NH2.HCl] | 23 ng/mL | – | 900 ng/mL | 650 ng/mL | – | –
970 × 10^6 L/mole | – | – | – | – | CCS(=O)(=O)N[C@H](CC1CCCCC1)C(=O)N1CCC[C@H]1C(=O)NCc1ccc(C(=N)N)cc1F.Cl [Example 93, EtSO2 -D-Cha-Pro-4-NHCH2 -3-F-benzamidine.HCl] | 5.9 ng/mL | – | 35 ng/mL | 140 ng/mL | – | –
10 × 10^6 L/mole | – | – | – | – | N=C(N)c1ccc(CNC(=O)[C@@H]2C[C@@H]3CCCC[C@@H]3N2C(=O)[C@H]2CCCCN2)cc1 [Example 20, D-hPro-Ohi-p-NHCH2 C6 H4 C(NH)NH2.3HCl] | 62 ng/mL | – | 550 ng/mL | 600 ng/mL | – | –
3.6 × 10^6 L/mole | – | – | – | – | Cl.Cl.N=C(N)c1ccc(CNC(=O)CN(CCc2ccccc2)C(=O)[C@H]2CCCCN2)cc1 [Example 21, D-hPro-N(PhCH2CH2)Gly-p-NHCH2 C6 H4 C(NH)NH2.2HCl] | 160 ng/mL | – | 2,000 ng/mL | 1,000 ng/mL | – | –
38. × 10^6 L/mole | – | – | – | – | Cl.Cl.N=C(N)c1ccc(CNC(=O)C2CC3CCCCC3N2C(=O)C2NCCC3CCCCC32)cc1 [Example 42, D-1-Piq-cis-Ohi-p-NHCH2 C6 H4 C(NH)NH2.2HCl] | 20 ng/mL | – | 270 ng/mL | 320 ng/mL | – | –
